Assay type in all cases: functional, cell-based
One experiment has as its system NCI-H460. As to the kind of experiment: Cytotoxicity against human NCI-H460 cells assessed as reduction in cell viability after 48 hrs by MTT assay. To be noted: NCI-H460, 48 h.
The subject of another experiment is SW-620. Description: Cytotoxicity against human SW620 cells assessed as reduction in cell viability after 48 hrs by MTT assay. The settings on record: SW-620, 48 h.
For a further experiment, the system named is HepG2. As to the kind of experiment: Cytotoxicity against human HepG2 cells assessed as reduction in cell viability after 48 hrs by MTT assay. The settings on record: HepG2, 48 h.
The test system of another experiment is L1210. Description: Cytotoxicity against mouse L1210 cells assessed as reduction in cell viability.
In the next experiment the test system is KB. Description: Cytotoxicity against human KB cells assessed as reduction in cell viability.

On to `CCC(=O)OC[C@]12CCCC(C)(C)[C@@H]1CC[C@@]1(C)[C@@H]3COC(=O)[C@@H]3C[C@H](OC(C)=O)[C@@H]12`, for which the IC50 in the experiment on NCI-H460, with SW-620 and with HepG2 was above 30 µM throughout.
As for `CCC(=O)OC[C@]12CCCC(C)(C)[C@@H]1CC[C@@]1(C)[C@@H]3COC(=O)[C@@H]3[C@@H](OC(C)=O)C[C@@H]12`, the IC50 with NCI-H460, with SW-620 and in the experiment with HepG2 was above 30 µM in each case.
Regarding `CC(=O)OC[C@]12CCCC(C)(C)[C@@H]1CC[C@@]1(C)[C@@H]3COC(=O)[C@@H]3[C@@H](OC(C)=O)C[C@@H]12`, the IC50 with NCI-H460, in the experiment with SW-620 and in the experiment on HepG2 was above 30 µM throughout.
For `CCC(=O)OC[C@]12CCCC(C)(C)[C@@H]1C[C@@H](OC(=O)CC(C)C)[C@@]1(C)[C@@H]3COC(=O)[C@@H]3C[C@H](O)[C@H]21`, the IC50 in the experiment with NCI-H460, with SW-620 and in the experiment with HepG2 was above 30 µM in each case.
For `CCC(=O)O[C@@H]1C[C@H]2C(=O)OC[C@H]2[C@@]2(C)[C@H]1[C@@]1(C)CCCC(C)(C)[C@@H]1C[C@H]2OC(=O)CC(C)C`, the IC50 in the experiment with NCI-H460, in the experiment on SW-620 and in the experiment on HepG2 was above 30 µM in each case.
Take `CC(=O)O[C@@H]1C[C@H]2C(C)(C)CCC[C@]2(C)[C@H]2CC[C@H]3C(=O)OC[C@H]3[C@@]21C`: the IC50 with L1210 was determined as 6.1 µM; in the experiment with KB it was 44.1 µM.
As for `CC(=O)OC[C@]12CCCC(C)(C)[C@@H]1CC[C@@]1(C)[C@@H]3COC(=O)[C@@H]3C[C@H](OC(C)=O)[C@@H]12`, the IC50 in the experiment on NCI-H460, in the experiment on SW-620 and in the experiment with HepG2 was above 30 µM in each case.
For `CC1(C)CCC[C@]2(C)[C@H]3CC[C@H]4C(=O)OC[C@H]4[C@]3(C)CC[C@@H]12`, the IC50 stood at 16.4 µM in the experiment on L1210 and 30.2 µM with KB.

Values taken from ChEMBL document CHEMBL4033603, “Spongian-16-one Diterpenes and Their Anatomical Distribution in the Australian Nudibranch Goniobranchus collingwoodi” (J Nat Prod, 2017).
